Measurements as given in patent publication US20130281467A1, “NOVEL MICROBICIDES” (SYNGENTA PARTICIPATIONS AG, priority 2010, published 2013).

Assays:
[1] = test system: Botryotinia fuckeliana (Botrytis cinerea); experiment: Fungicidal activity against Botryotinia fuckeliana (Botrytis cinerea) / liquid culture (gray mould); assay type: cell-based; details: 3-4 days after application, read-out: disease control (inhibition of growth, photometrically)
Description: Fungicidal Activity Against Botryotinia fuckeliana (Botrytis cinerea)/Liquid Culture (Gray Mould) Conidia of the fungus from cryogenic storage were directly mixed into nutrient broth (Vogels broth). After placing a (DMSO) solution of test compound into a microtiter plate (96-well format), the nutrient broth containing the fungal spores was added. The test plates were incubated at 24° C. and the inhibition of growth was determined photometrically 3-4 days after application.

[2] = test system: Gaeumannomyces graminis; experiment: Fungicidal activity against Gaeumannomyces graminis / liquid culture (take-all of cereals); assay type: cell-based; details: 4-5 days after application, read-out: disease control (inhibition of growth, photometrically)
Description: Fungicidal Activity Against Gaeumannomyces graminis/Liquid Culture (Take-all of Cereals) Mycelial fragments of the fungus from cryogenic storage were directly mixed into nutrient broth (PDB potato dextrose broth). After placing a (DMSO) solution of test compound into a microtiter plate (96-well format), the nutrient broth containing the fungal spores iss added. The test plates were incubated at 24° C. and the inhibition of growth was determined photometrically 4-5 days after application.

[3] = test system: Glomerella lagenarium (Colletotrichum lagenarium); experiment: Fungicidal activity against Glomerella lagenarium (Colletotrichum lagenarium) / liquid culture (anthracnose); assay type: cell-based; details: Colletotrichum orbiculare, 3-4 days after application, read-out: disease control (inhibition of growth, photometrically)
Description: Fungicidal Activity Against Glomerella lagenarium (Colletotrichum lagenarium)/Liquid Culture (Anthracnose) Conidia of the fungus from cryogenic storage were directly mixed into nutrient broth (PDB potato dextrose broth). After placing a (DMSO) solution of test compound into a microtiter plate (96-well format), the nutrient broth containing the fungal spores was added. The test plates were incubated at 24° C. and the inhibition of growth was measured photometrically 3-4 days after application.

[4] = test system: Monographella nivalis (Microdochium nivale); experiment: Fungicidal activity against Monographella nivalis (Microdochium nivale) / liquid culture (foot rot cereals); assay type: cell-based; details: 4-5 days after application, read-out: disease control (inhibition of growth, photometrically)
Description: Fungicidal Activity Against Monographella nivalis (Microdochium nivale)/Liquid Culture (Foot Rot Cereals) Conidia of the fungus from cryogenic storage were directly mixed into nutrient broth (PDB potato dextrose broth). After placing a (DMSO) solution of test compound into a microtiter plate (96-well format), the nutrient broth containing the fungal spores was added. The test plates were incubated at 24° C. and the inhibition of growth was determined photometrically 4-5 days after application.

[5] = test system: Mycosphaerella arachidis (Cercospora arachidicola); experiment: Fungicidal activity against Mycosphaerella arachidis (Cercospora arachidicola) / liquid culture (early leaf spot); assay type: cell-based; details: 4-5 days after application, read-out: disease control (inhibition of growth, photometrically)
Description: Fungicidal Activity Against Mycosphaerella arachidis (Cercospora arachidicola)/Liquid Culture (Early Leaf Spot) Conidia of the fungus from cryogenic storage were directly mixed into nutrient broth (PDB potato dextrose broth). After placing a (DMSO) solution of test compound into a microtiter plate (96-well format), the nutrient broth containing the fungal spores was added. The test plates were incubated at 24° C. and the inhibition of growth was determined photometrically 4-5 days after application.

[6] = test system: Mycosphaerella graminicola (Septoria tritici); experiment: Fungicidal activity against Mycosphaerella graminicola (Septoria tritici) / liquid culture (Septoria blotch); assay type: cell-based; details: Zymoseptoria tritici, 4-5 days after application, read-out: disease control (inhibition of growth, photometrically)
Description: Fungicidal Activity Against Mycosphaerella graminicola (Septoria tritici)/Liquid Culture (Septoria Blotch) Conidia of the fungus from cryogenic storage were directly mixed into nutrient broth (PDB potato dextrose broth). After placing a (DMSO) solution of test compound into a microtiter plate (96-well format), the nutrient broth containing the fungal spores was added. The test plates were incubated at 24° C. and the inhibition of growth was determined photometrically 4-5 days after application.

[7] = test system: Phaeosphaeria nodorum (Septoria nodorum); experiment: Fungicidal activity against Phaeosphaeria nodorum (Septoria nodorum) / wheat / leaf disc preventative (glume blotch); assay type: in vivo; details: Parastagonospora nodorum, foliar, wheat leaf segments, inoculated 2 days after application, compared to untreated, read-out: disease control
Description: Fungicidal Activity Against Phaeosphaeria nodorum (Septoria nodorum)/Wheat/Leaf Disc Preventative (Glume Blotch) Wheat leaf segments cv. Kanzler were placed on agar in a multiwell plate (24-well format) and sprayed with the formulated test compound diluted in water. The leaf disks were inoculated with a spore suspension of the fungus 2 days after application. The inoculated test leaf disks were incubated at 20° C. and 75% rh under a light regime of 12 h light/12 h darkness in a climate cabinet and the activity of a compound was assessed as percent disease control compared to untreated when an appropriate level of disease damage appears in untreated check leaf disks (5-7 days after application).

[8] = test system: Puccinia recondita f. sp. tritici; experiment: Fungicidal activity against Puccinia recondita f. sp. tritici / wheat / leaf disc preventative (brown rust); assay type: in vivo; details: foliar, wheat leaf segments, inoculated 1 day after application, compared to untreated, read-out: disease control
Description: Fungicidal Activity Against Puccinia recondita f. sp. tritici/Wheat/Leaf Disc Preventative (Brown Rust) Wheat leaf segments cv. Kanzler were placed on agar in multiwell plates (24-well format) and sprayed with the formulated test compound diluted in water. The leaf disks were inoculated with a spore suspension of the fungus 1 day after application. The inoculated leaf segments were incubated at 19° C. and 75% rh under a light regime of 12 h light/12 h darkness in a climate cabinet and the activity of a compound was assessed as percent disease control compared to untreated when an appropriate level of disease damage appears in untreated check leaf segments (7-9 days after application).

[9] = test system: Thanatephorus cucumeris (Rhizoctonia solani); experiment: Fungicidal activity against Thanatephorus cucumeris (Rhizoctonia solani) / liquid culture (foot rot, damping-off); assay type: cell-based; details: 3-4 days after application, read-out: disease control (inhibition of growth, photometrically)
Description: Fungicidal Activity Against Thanatephorus cucumeris (Rhizoctonia solani)/Liquid Culture (Foot Rot, Damping-Off) Mycelia fragments of a newly grown liquid culture of the fungus were directly mixed into nutrient broth (PDB potato dextrose broth). After placing a (DMSO) solution of the test compounds into a microtiter plate (96-well format), the nutrient broth containing the fungal material was added. The test plates were incubated at 24° C. and the inhibition of growth was determined photometrically 3-4 days after application.

[10] = test system: Blumeria graminis f. Sp. tritici (Erysiphe graminis f. sp. tritici); experiment: Fungicidal activity against Blumeria graminis f. sp. tritici / wheat / leaf disc preventative (powdery mildew on wheat); assay type: in vivo; details: foliar, wheat leaf segments, inoculated 1 day after application, compared to untreated, read-out: disease control
Description: Fungicidal Activity Against Blumeria graminis f. Sp. tritici (Erysiphe graminis f. sp. tritici)/Wheat/Leaf Disc Preventative (Powdery Mildew on Wheat)
Wheat leaf segments cv. Kanzler were placed on agar in a multiwell plate (24-well format) and sprayed with the formulated test compound diluted in water. The leaf disks were inoculated by shaking powdery mildew infected plants above the test plates 1 day after application. The inoculated leaf disks were incubated at 20° C. and 60% rh under a light regime of 24 h darkness followed by 12 h light/12 h darkness in a climate chamber and the activity of a compound was assessed as percent disease control compared to untreated when an appropriate level of disease damage appears on untreated check leaf segments (6-8 days after application).

[11] = test system: Pyrenophora teres; experiment: Fungicidal activity against Pyrenophora teres / barley / leaf disc preventative (net blotch); assay type: in vivo; details: foliar, barley leaf segments, inoculated 2 days after application, compared to untreated, read-out: disease control
Description: Fungicidal Activity Against Pyrenophora teres/Barley/Leaf Disc Preventative (Net Blotch) Barley leaf segments cv. Hasso were placed on agar in a multiwell plate (24-well format) and sprayed with the formulated test compound diluted in water. The leaf segments were inoculated with a spore suspension of the fungus 2 days after application. The inoculated leaf segments were incubated at 20° C. and 65% rh under a light regime of 12 h light/12 h darkness in a climate cabinet and the activity of a compound was assessed as disease control compared to untreated when an appropriate level of disease damage appears in untreated check leaf segments (5-7 days after application).

CO/N=C1\CC(C)(C)Cc2nc(-c3cccc(Cc4ccccc4)n3)ncc21 [Compound 23]
≥ 80%: inhibition at 200 ppm [1] | inhibition at 200 ppm [2] | inhibition at 200 ppm [3] | inhibition at 200 ppm [4] | inhibition at 200 ppm [5] | inhibition at 200 ppm [6]

CO/N=C1\CCCc2nc(-c3cccc(Cc4ccccc4Cl)n3)ncc21 [Compound 24]
≥ 80%: inhibition at 200 ppm [1] | inhibition at 200 ppm [2] | inhibition at 200 ppm [3] | inhibition at 200 ppm [4] | inhibition at 200 ppm [5] | inhibition at 200 ppm [6] | pest or weed control at 200 ppm [7] | pest or weed control at 200 ppm [8] | inhibition at 200 ppm [9]

CO/N=C1\CCCc2nc(-c3cccc(Cc4ccccc4OC)n3)ncc21 [Compound 27]
≥ 80%: pest or weed control at 200 ppm [10] | inhibition at 200 ppm [1] | inhibition at 200 ppm [2] | inhibition at 200 ppm [3] | inhibition at 200 ppm [4] | inhibition at 200 ppm [5] | inhibition at 200 ppm [6] | pest or weed control at 200 ppm [7] | pest or weed control at 200 ppm [8] | pest or weed control at 200 ppm [11]

Cc1cccc(Cc2cccc(-c3ncc4c(n3)CCCCC4)n2)c1 [Compound 31]
≥ 80%: pest or weed control at 200 ppm [10] | inhibition at 200 ppm [2] | inhibition at 200 ppm [3] | inhibition at 200 ppm [5] | inhibition at 200 ppm [6] | pest or weed control at 200 ppm [7] | pest or weed control at 200 ppm [8] | pest or weed control at 200 ppm [11] | inhibition at 200 ppm [9]

Cc1ccc(Cc2cccc(-c3ncc4c(n3)CC(C)(C)CC4)n2)cc1 [Compound 36]
≥ 80%: pest or weed control at 200 ppm [10] | inhibition at 200 ppm [1] | inhibition at 200 ppm [2] | inhibition at 200 ppm [3] | inhibition at 200 ppm [4] | inhibition at 200 ppm [5] | inhibition at 200 ppm [6] | pest or weed control at 200 ppm [7] | pest or weed control at 200 ppm [11] | inhibition at 200 ppm [9]

COc1ccc(Cc2cccc(-c3ncc4c(n3)CCCCC4)n2)cn1 [Compound 39, 2-[6-(6-Methoxy-pyridin-3-ylmethyl)-pyridin-2-yl]-6,7,8,9-tetrahydro-5H-cycloheptapyrimidine]
≥ 80%: pest or weed control at 200 ppm [10] | inhibition at 200 ppm [2] | inhibition at 200 ppm [3] | inhibition at 200 ppm [5] | inhibition at 200 ppm [6] | pest or weed control at 200 ppm [7] | pest or weed control at 200 ppm [8] | pest or weed control at 200 ppm [11]

COc1ccc(C(C)c2cccc(-c3ncc4c(n3)CC(C)(C)CC4)n2)cn1 (stereo not shown) [Compound 43]
≥ 80%: pest or weed control at 200 ppm [10] | inhibition at 200 ppm [1] | inhibition at 200 ppm [2] | inhibition at 200 ppm [3] | inhibition at 200 ppm [4] | inhibition at 200 ppm [5] | inhibition at 200 ppm [6] | pest or weed control at 200 ppm [7] | pest or weed control at 200 ppm [11]
